Measurements: publication PMC8795738, “The Tarantula Venom Peptide Eo1a Binds to the Domain II S3-S4 Extracellular Loop of Voltage-Gated Sodium Channel NaV1.8 to Enhance Activation” (Frontiers in Pharmacology, 2022)
Where a SMILES comes first, the peptide text is derived from it. Bridges are numbered along the chain shown (N, C = ends).

Experiments:
[1] = system: mice; assay: Spontaneous pain behaviours after intraplantar injection in mice; type: in vivo, mouse; conditions: 40 μl intraplantar, n = 3–4
From the text: Adult male C57BL/6J mice aged 4–8 weeks were sourced from the Animal Resource Centre (Canning Vale, Western Australia). Adult male NaV1.8 knockouts ([Nassar et al., 2004]) (aged 8–11 weeks) and wild-type littermates were housed and tested at University College London. Animals were housed in groups of three or four per cage under 12-h light-dark cycles and were provided with standard rodent chow and water ad libitum. Ethical approval for experiments involving animals was obtained from The University of Queensland animal ethics committee (TRI/IMB/093/17, IMB/PACE/421/18) and the United Kingdom Home Office (project licence PPL 70/7382). All experiments were conducted in accordance with the International Association for the Study of Pain Guidelines for the Use of Animals in Research and the Australian Code of Practice for the Care and Use of Animals for Scientific Purposes, 8th edition (2013).
Eo1a (1 μM or 10 μM) was diluted in saline/0.1% BSA and administered by intraplantar injection to the left hind paw of mice in a volume of 40 μl under isoflurane (3%) anaesthesia, and spontaneous pain behaviours (licks, bites, shakes, and lifts of the hind paw) were counted by a blinded investigator for up to 40 min after the injection.

[2] = system: NaV1.7 with DII S3-S4 loop of NaV1.8; assay: Voltage-dependence of activation, NaV1.7/NaV1.8 chimera DII S3-S4; type: cell-based, human; conditions: Eo1a 10 μM; NaV1.7 with NaV1.8 DII S3-S4; HEK293 β1/β2, transient; mean ± SEM, n = 3–6 cells
Description: (§1) Human Embryonic Kidney (HEK) 293 cells stably expressing human NaV1.1 to NaV1.7/β1 (SB Drug Discovery, Glasgow, United Kingdom), Chinese Hamster Ovary (CHO) cells stably expressing human NaV1.8/β3 in a tetracycline-inducible system (ChanTest, Cleveland, OH, United States), and HEK293 cells stably expressing rat transient receptor potential vanilloid 1 (TRPV1) were cultured as previously described ([Yin et al., 2020]). Human KV2.1 and NaV1.7 mutants were transiently transfected into HEK293 cells stably expressing β1/β2 using Lipofectamine 2000 (Thermo Fisher Scientific, Scoresby, VIC, Australia) and used for patch-clamp experiments 48 h after transfection. Cells were grown in an incubator at 37°C with 5% CO2 and passaged every 3–4 d (at 70–80% confluency) using TrypLE Express (Thermo Fisher Scientific).
(§2) Wild-type (WT) hNaV1.7 cDNA (NM_002,977, a gift from Dr James Cox, University College London) was subjected to in vitro site-directed mutagenesis using the QuikChange™ XL mutagenesis kit (Agilent Technologies) following the manufacturer’s instructions. NaV1.7 mutants were generated by substituting the domain II (DII) S1-S2 loop, the DII S3-S4 loop, the domain IV (DIV) S1-S2 loop and the DIV S3-S4 loop in NaV1.7 with the corresponding regions of NaV1.8. The mutations were verified by sequencing at the Brisbane node of the Australian Genome Research Facility. […]

[3] = system: NaV1.7 with DII S1-S2 loop of NaV1.8; assay: Voltage-dependence of activation, NaV1.7/NaV1.8 chimera DII S1-S2; type: cell-based, human; conditions: Eo1a 10 μM; NaV1.7 with NaV1.8 DII S1-S2; HEK293 β1/β2, transient; mean ± SEM, n = 3–6 cells
Description: as §1, §2

[4] = system: TRPV1; assay: TRPV1 calcium assay (FLIPR); type: cell-based; conditions: Eo1a 10 μM, HEK293, rat TRPV1, Calcium 4 dye, 300 s, compared with capsaicin 300 nM, n = 3 wells
Description: as §1
The activity of Eo1a at rTRPV1 was assessed using the assay described previously ([Yin et al., 2020]). Briefly, the TRPV1 activator capsaicin (300 nM) and Eo1a (10 μM) were added to cells loaded with Calcium 4 no-wash dye (Molecular Devices) and changes in fluorescence were assessed using a FLIPR^TETRA (excitation 470–495 nm, emission 515–575 nm) every 1 s for 300 s. Fluorescence responses were normalized to baseline fluorescence (ΔF/F) and plotted versus time using ScreenWorks 3.2.0.14.

[5] = biological target: NaV1.8 (Homo sapiens, UniProt Q9Y5Y9); assay: I-V protocol, whole-cell patch-clamp, NaV1.8; type: cell-based; conditions: Eo1a 10 μM
Description: as §1
Automated whole-cell patch-clamp recordings were performed with a QPatch-16 automated electrophysiology platform (Sophion Bioscience, Ballerup, Denmark) using single-hole (QPlate 16 with a standard resistance of 2 ± 0.4 MΩ) or multi-hole (QPlate 16X with a standard resistance 0.2 ± 0.04 MΩ, NaV1.8 only) as previously described ([McMahon et al., 2020]).
The extracellular solution (ECS) consisted of (in mM) 145 NaCl (replaced with 70 choline chloride for NaV1.4, NaV1.5 and NaV1.7), 4 KCl, 2 CaCl2, 1 MgCl2, 10 HEPES, and 10 glucose, pH to 7.4 with NaOH (adjusted to 305 mOsm/L with sucrose). For NaV recordings the intracellular solution (ICS) consisted of (in mM) 140 CsF, 1 EGTA, 5 CsOH, 10 HEPES, and 10 NaCl, pH to 7.3 with CsOH (adjusted to 320 mOsm/L with sucrose). For KV2.1 recordings the ICS consisted of (in mM) 50 KCl, 60 KF, 10 EGTA, 10 HEPES, 10 NaCl pH to 7.3 with KOH (adjusted to 320 mOsm/L with sucrose). TTX (1 μM) was added to the ECS for NaV1.8 recordings to inhibit background endogenous TTX sensitive current in CHO cells.
I-V curves were obtained with a holding potential of −90 mV followed by a series of 500 ms step pulses that ranged from −110 to +80 mV in 5-mV increments (repetition interval 5 s) before and after 5 min incubation with Eo1a (10 μM). Conductance-voltage (G-V) curves were obtained by calculating the conductance (G) at each voltage (V) using equation G = I/(V − V rev ), where V rev is the reversal potential. G-V curves were fitted with a Boltzmann equation. The voltage dependence of steady-state fast inactivation was examined using a 10-ms pulse of −20 mV (+10 mV for NaV1.8) immediately after the 500-ms step above to assess the available non-inactivated channels.
The time constant of fast inactivation (τ) was computed by fitting the current decay traces with a single exponential function using QPatch Assay Software 5.6 (Sophion). The time to peak was calculated from pulse onset to peak inward current using QPatch Assay Software 5.6 (Sophion).

NaV1.8, sequence (Q9Y5Y9 whole entry): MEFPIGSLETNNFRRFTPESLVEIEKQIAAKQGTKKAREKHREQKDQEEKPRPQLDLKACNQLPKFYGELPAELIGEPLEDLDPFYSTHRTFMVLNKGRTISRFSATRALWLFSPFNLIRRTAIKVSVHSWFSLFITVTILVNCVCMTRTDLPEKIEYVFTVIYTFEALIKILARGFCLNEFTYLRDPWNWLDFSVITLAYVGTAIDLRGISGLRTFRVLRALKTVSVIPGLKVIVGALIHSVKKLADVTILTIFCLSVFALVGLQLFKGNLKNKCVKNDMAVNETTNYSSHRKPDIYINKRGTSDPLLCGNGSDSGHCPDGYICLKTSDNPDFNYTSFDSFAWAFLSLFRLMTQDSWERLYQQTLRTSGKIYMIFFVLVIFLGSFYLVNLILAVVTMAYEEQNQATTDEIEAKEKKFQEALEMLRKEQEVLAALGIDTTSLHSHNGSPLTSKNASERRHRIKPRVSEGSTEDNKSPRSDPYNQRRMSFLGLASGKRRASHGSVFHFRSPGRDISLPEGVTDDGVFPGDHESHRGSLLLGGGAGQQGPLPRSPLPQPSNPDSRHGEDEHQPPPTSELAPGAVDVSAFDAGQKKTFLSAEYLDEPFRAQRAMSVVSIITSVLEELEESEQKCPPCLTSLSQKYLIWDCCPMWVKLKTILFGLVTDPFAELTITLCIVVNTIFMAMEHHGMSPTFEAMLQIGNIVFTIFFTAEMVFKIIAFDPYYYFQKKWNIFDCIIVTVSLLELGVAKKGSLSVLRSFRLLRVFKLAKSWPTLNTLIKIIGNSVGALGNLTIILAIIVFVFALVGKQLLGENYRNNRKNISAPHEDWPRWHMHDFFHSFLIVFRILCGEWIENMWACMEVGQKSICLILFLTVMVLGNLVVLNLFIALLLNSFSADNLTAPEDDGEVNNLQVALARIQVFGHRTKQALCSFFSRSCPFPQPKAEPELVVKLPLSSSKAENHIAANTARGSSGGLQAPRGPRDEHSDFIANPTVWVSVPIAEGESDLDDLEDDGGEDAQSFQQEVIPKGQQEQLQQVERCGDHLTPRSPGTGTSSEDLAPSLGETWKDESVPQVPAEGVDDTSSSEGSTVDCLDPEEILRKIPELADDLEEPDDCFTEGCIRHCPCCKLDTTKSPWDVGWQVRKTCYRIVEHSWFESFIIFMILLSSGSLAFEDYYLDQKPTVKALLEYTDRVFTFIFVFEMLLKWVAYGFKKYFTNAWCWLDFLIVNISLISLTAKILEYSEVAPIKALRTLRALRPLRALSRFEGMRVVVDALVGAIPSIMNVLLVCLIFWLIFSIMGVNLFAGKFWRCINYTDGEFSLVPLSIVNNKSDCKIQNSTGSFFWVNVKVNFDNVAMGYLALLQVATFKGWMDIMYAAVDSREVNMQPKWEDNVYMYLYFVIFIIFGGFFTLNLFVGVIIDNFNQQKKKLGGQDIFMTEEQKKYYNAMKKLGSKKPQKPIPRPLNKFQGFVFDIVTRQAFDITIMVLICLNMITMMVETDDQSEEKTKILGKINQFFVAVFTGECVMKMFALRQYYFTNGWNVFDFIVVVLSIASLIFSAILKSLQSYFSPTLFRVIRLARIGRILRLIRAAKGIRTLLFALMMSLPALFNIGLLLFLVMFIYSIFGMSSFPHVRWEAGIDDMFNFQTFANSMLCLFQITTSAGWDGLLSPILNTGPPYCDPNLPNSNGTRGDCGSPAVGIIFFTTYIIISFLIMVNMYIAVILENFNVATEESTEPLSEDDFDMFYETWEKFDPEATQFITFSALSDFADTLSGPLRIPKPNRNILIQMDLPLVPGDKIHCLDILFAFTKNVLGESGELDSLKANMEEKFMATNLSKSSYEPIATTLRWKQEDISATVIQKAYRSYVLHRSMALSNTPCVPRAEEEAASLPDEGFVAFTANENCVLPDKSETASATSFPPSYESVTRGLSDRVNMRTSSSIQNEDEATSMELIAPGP

CC[C@H](C)[C@@H]1NC(=O)[C@H](CCCNC(=N)N)NC(=O)[C@@H]2CSSC[C@@H]3NC(=O)CNC(=O)CNC(=O)[C@H](CC(C)C)NC(=O)[C@H](Cc4ccccc4)NC(=O)[C@H](Cc4c[nH]c5ccccc45)NC(=O)[C@H](CCCNC(=N)N)NC(=O)[C@@H](NC(=O)[C@@H](N)CC(=O)O)CSSC[C@H](NC(=O)[C@H](CSSC[C@@H](C(=O)N[C@@H](C)C(=O)N[C@@H](Cc4c[nH]c5ccccc45)C(=O)N[C@@H](CC(=O)O)C(=O)NCC(=O)N[C@H](C(=O)N[C@@H](Cc4ccccc4)C(N)=O)[C@@H](C)O)NC(=O)[C@H](Cc4ccc(O)cc4)NC(=O)[C@H](CCCCN)NC(=O)[C@H]([C@@H](C)CC)NC(=O)[C@H](Cc4ccc(O)cc4)NC(=O)CNC(=O)[C@H](CC(=O)O)NC1=O)NC(=O)[C@H](CC(=O)O)NC(=O)[C@H](CO)NC(=O)[C@H](CC(=O)O)NC(=O)[C@H](CCCCN)NC(=O)[C@H](CO)NC3=O)C(=O)N[C@@H](CCCCN)C(=O)N[C@@H](Cc1c[nH]cn1)C(=O)N[C@@H](CC(C)C)C(=O)N[C@@H](C)C(=O)N2 [Eo1a] (H-DCRWFLGGCSKDSDCCKHLACRIDGYIKYCAWDGTF-NH2; disulfide 2-16, 9-21, 15-30 (inferred); N-terminus assumed)
spontaneous pain behaviours ([1]; Eo1a 1 μM): induced spontaneous pain behaviours
spontaneous pain behaviours ([1]; Eo1a 10 μM, gradually subsided over 30 min): caused spontaneous pain behaviours that gradually subsided over 30 min
ΔV1/2 activation [2]: −20.4 ± 1.4 mV
ΔV1/2 activation [3]: −3.7 ± 0.5 mV
activity at TRPV1 (Ca2+ dye fluorescence over baseline) [4]: minimal activity
ΔV50 voltage-dependence of steady-state fast inactivation ([5]; 5 min, CHO cells, hNaV1.8/β3, 10-ms pulse to +10 mV after 500-ms step, hyperpolarising shift, mean ± SEM, n = 4 cells): –15.5 ± 1.8 mV
ΔV50 voltage-dependence of activation ([5]; 5 min, CHO cells, hNaV1.8/β3, Boltzmann fit, hyperpolarising shift vs before addition, mean ± SEM, n = 4 cells): –20.5 ± 1.2 mV
peak current I/I0 ([5]; 5 min, peak from I-V protocol at any voltage, normalised to buffer control, CHO hNaV1.8/β3, mean ± SEM, n = 4–6 cells): 1.8 ± 0.08
window current ([5]; NaV1.8, n = 4 cells): comparatively unchanged
activation kinetics (time to peak) ([5]; NaV1.8, potentials between −5 mV and +45 mV, n = 4 cells, two-way ANOVA): without significantly altering
fast inactivation kinetics (time constant) ([5]; NaV1.8, single exponential fit, −5 mV to +45 mV, n = 4 cells, two-way ANOVA): without significantly altering
V1/2 activation ([5]; NaV1.8, 5 min, control +7.0 ± 1.8 mV, *p < 0.05, mean ± SEM, n = 4–6): −13.5 mV
V1/2 inactivation (steady-state fast inactivation) ([5]; NaV1.8, 5 min, control −27.4 ± 2.7 mV, *p < 0.05, mean ± SEM, n = 4–6): −42.9 ± 2.1*
